Assays:
human GPR52 = biological target: T1, human GPR52 (Homo sapiens, UniProt Q9Y2T5); assay: Increased intracellular cAMP levels in human GPR52 expression CHO cells; assay type: cell-based; details: 1 μM test compound, 30 min at 37° C., human GPR52 expression CHO (dhfr-) cells; 100% = cAMP level with 1 μM Reference Example 136, 0% = DMSO
T1 construct: expressed in transfected cells; host or cells: CHO (dhfr-) cells
Description: Increased intracellular cAMP levels in human GPR52 expression CHO cells 1×10^4 human GPR52 expression CHO (dhfr-) cells were incubated with 1 μM test compound for 30 min at 37° C. in 30 μL assay buffer (HBSS (containing Ca^2+ and Mg^2+), 0.5% BSA, 100 μM IBMX, 100 μM Ro 20-1724, 5 mM HEPES (pH 7.55)) using an OptiPlate-384 (by PerkinElmer). The intracellular cAMP level was then assayed with an EnVision (by PerkinElmer) according to the protocol of the AlphaScreen cAMP Assay Kit (by PerkinElmer). The GPR52 agonist activity was calculated, assuming the intracellular cAMP level in the presence of 1 μM of 3-(6-(2-(3,4-dimethoxyphenyl)ethoxy)pyridine-2-yl)-N-(2-pyrrolidin-1-ylethyl)benzamide (Reference Example 136) to be 100% and assuming the intracellular cAMP level when DMSO was added instead of test compound to be 0%.

[1] = tested on: methamphetamine-induced locomotor hyperactivity in mice; assay: Inhibition of methamphetamine-induced locomotor hyperactivity; assay type: in vivo; details: male ICR mice, test compound 30 mg/kg orally, 60 min later methamphetamine 2 mg/kg subcutaneous, locomotor activity 90 min after methamphetamine, versus vehicle group
Description: Compounds of the present invention can be evaluated by assessing the inhibition of methamphetamine-induced locomotor hyperactivity in mice. The method of Okuyama et al was modified to test the inhibition of methamphetamine-induced locomotor hyperactivity (Life Science, Vol. 65, pages 2109-2125 (1999)).
Locomotor activity was measured using a 32-channel locomotor activity measurement device MDC-LT (by BrainScience Idea Co., Ltd.), which emits infrared beams from the top of a cage (30×40×20 cm). 6- to 8-week old male ICR mice were acclimated for at least 45 min in the measurement cages, and then either test compound (30 mg/kg) dissolved in vehicle (0.5% methylcellulose aqueous solution) or the vehicle alone were orally administered. This oral administration was followed 60 min later by subcutaneous administration of methamphetamine (2 mg/kg).
90 min after administration of methamphetamine, the number of times the laboratory animals passed through the infrared beams emitted inside the measurement cages was measured to quantify locomotor activity. The following equation was used to calculate the rate at which methamphetamine-induced locomotor hyperactivity was inhibited (activity inhibition rate (%)).
Activity inhibition rate (%)={1−(locomotor activity after treatment with methamphetamine in test compound treatment group÷locomotor activity after treatment with methamphetamine in vehicle treatment group)}×100

T1 sequence (Q9Y2T5 whole entry): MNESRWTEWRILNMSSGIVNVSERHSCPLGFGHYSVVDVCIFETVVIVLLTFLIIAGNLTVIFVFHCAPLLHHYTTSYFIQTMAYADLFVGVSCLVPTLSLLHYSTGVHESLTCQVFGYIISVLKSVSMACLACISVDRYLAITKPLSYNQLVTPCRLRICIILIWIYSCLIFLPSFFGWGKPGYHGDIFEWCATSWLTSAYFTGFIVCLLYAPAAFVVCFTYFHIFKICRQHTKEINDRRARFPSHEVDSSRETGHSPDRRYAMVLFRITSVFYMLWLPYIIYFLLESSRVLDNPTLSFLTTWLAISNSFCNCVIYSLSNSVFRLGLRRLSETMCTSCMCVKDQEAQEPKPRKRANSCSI

With `Cc1c(Cc2cccc(C(F)(F)F)c2)sc2c(-c3cccc(C(=O)NCCO)c3)cccc12` [Working Example 191, N-(2-Hydroxyethyl)-3-[3-methyl-2-[3-(trifluoromethyl)benzyl]-1-benzothiophen-7-yl]benzamide] the “GPR52 agonist activity (%)” value (human GPR52) was 94% and the “Activity Inhibition Rate (%)” value [1] was 65%.
With `O=C(NCCO)c1cccc(-c2cncc3cc(Cc4cccc(C(F)(F)F)c4)oc23)c1` [Working Example 413, N-(2-Hydroxyethyl)-3-[2-[3-(trifluoromethyl)benzyl]furo[3,2-c]pyridin-7-yl]benzamide] the “GPR52 agonist activity (%)” value (human GPR52) was 83%.
In the case of `N#CCCNC(=O)c1cccc(-c2cccc3nn(Cc4ccc(F)c(Cl)c4)cc23)c1` [Working Example 65, 3-[2-(3-Chloro-4-fluorobenzyl)-2H-indazol-4-yl]-N-(2-cyanoethyl)benzamide], the “GPR52 agonist activity (%)” value (human GPR52) is reported as 75%.
For `NC(=O)CNC(=O)c1cccc(-c2cccc3sc(Cc4cccc(C(F)(F)F)c4)nc23)c1` [Working Example 252, N-(2-Amino-2-oxoethyl)-3-[2-[3-(trifluoromethyl)benzyl]-1,3-benzothiazol-4-yl]benzamide], the “GPR52 agonist activity (%)” value (human GPR52) was 80%.
In the case of `O=C(NCCO)c1cccc(-c2cccn3c(=O)n(Cc4cccc(C(F)(F)F)c4)nc23)c1` [Working Example 99, N-(2-Hydroxyethyl)-3-[3-oxo-2-[3-(trifluoromethyl)benzyl]-2,3-dihydro[1,2,4]triazolo[4,3-a]pyridin-8-yl]benzamide], the “GPR52 agonist activity (%)” value (human GPR52) is reported as 67%.
For `O=C(NCCO)c1cccc(-c2cccc3cc(Cc4cc(F)cc(Cl)c4)sc23)n1` [Working Example 222, 6-[2-(3-Chloro-5-fluorobenzyl)-1-benzothiophen-7-yl]-N-(2-hydroxyethyl)pyridine-2-carboxamide], the “GPR52 agonist activity (%)” value (human GPR52) was 62%.
With `CC(C)n1cc(Cc2cc3cccc(-c4cccc(C(=O)NCCO)c4)c3s2)ccc1=O` [Working Example 292, N-(2-Hydroxyethyl)-3-[2-[[1-(1-methylethyl)-6-oxo-1,6-dihydropyridin-3-yl]methyl]-1-benzothiophen-7-yl]benzamide] the “GPR52 agonist activity (%)” value (human GPR52) was 61%.
In the case of `O=C(NCCO)c1cccc(-c2ccnc3cc(Cc4cccc(C(F)(F)F)c4)sc23)c1` [Working Example 265, N-(2-hydroxyethyl)-3-[2-[3-(trifluoromethyl)benzyl]thieno[3,2-b]pyridin-7-yl]benzamide], the “GPR52 agonist activity (%)” value (human GPR52) is reported as 93%.
For `COCCNC(=O)c1cccc(-c2cccc3cc(Cc4cc(F)cc(Cl)c4)sc23)c1` [Working Example 179, 3-[2-(3-Chloro-5-fluorobenzyl)-1-benzothiophen-7-yl]-N-(2-methoxyethyl)benzamide], the “GPR52 agonist activity (%)” value (human GPR52) was 89%.
With `N#CCCNC(=O)c1ccnc(-c2cccc3oc(Cc4cccc(C(F)(F)F)c4)cc23)c1` [Working Example 21, N-(2-Cyanoethyl)-2-[2-[3-(trifluoromethyl)benzyl]-1-benzofuran-4-yl]isonicotinamide] the “GPR52 agonist activity (%)” value (human GPR52) was 74%.
With `O=C(NCCO)c1cccc(-c2cccc3oc(Cc4cccc(C(F)(F)F)c4)cc23)c1` [Working Example 7, N-(2-Hydroxyethyl)-3-[2-[3-(trifluoromethyl)benzyl]-1-benzofuran-4-yl]benzamide] the “GPR52 agonist activity (%)” value (human GPR52) was 82% and the “Activity Inhibition Rate (%)” value [1] was 89%.
In the case of `NC(=O)CNC(=O)c1cccc(-c2ccc(F)c3cc(Cc4cccc(C(F)(F)F)c4)sc23)c1` [Working Example 230, N-(2-Amino-2-oxoethyl)-3-[4-fluoro-2-[3-(trifluoromethyl)benzyl]-1-benzothiophen-7-yl]benzamide], the “GPR52 agonist activity (%)” value (human GPR52) is reported as 85% and the “Activity Inhibition Rate (%)” value [1] is reported as 58%.
For `NC(=O)CNC(=O)c1cccc(-c2cccc3c(F)c(Cc4cccc(C(F)(F)F)c4)sc23)c1` [Working Example 405, N-(2-Amino-2-oxoethyl)-3-[3-fluoro-2-[3-(trifluoromethyl)benzyl]-1-benzothiophen-7-yl]benzamide], the “GPR52 agonist activity (%)” value (human GPR52) was 113%.
With `COCCNC(=O)c1cccc(-c2ccc(F)c3cc(Cc4cccc(S(C)(=O)=O)c4)sc23)c1` [Working Example 159, 3-[4-Fluoro-2-[3-(methylsulfonyl)benzyl]-1-benzothiophen-7-yl]-N-(2-methoxyethyl)benzamide] the “GPR52 agonist activity (%)” value (human GPR52) was 80%.
For `NC(=O)CNC(=O)c1cncc(-c2cccc3cc(Cc4cc(F)cc(Cl)c4)sc23)c1` [Working Example 221, N-(2-Amino-2-oxoethyl)-5-[2-(3-chloro-5-fluorobenzyl)-1-benzothiophen-7-yl]pyridine-3-carboxamide], the “GPR52 agonist activity (%)” value (human GPR52) was 81%.
In the case of `CC(C)OCCNC(=O)c1cccc(-c2cccc3cc(Cc4cc(F)cc(Cl)c4)sc23)c1` [Working Example 360, 3-[2-(3-Chloro-5-fluorobenzyl)-1-benzothiophen-7-yl]-N-[2-(1-methylethoxy)ethyl]benzamide], the “GPR52 agonist activity (%)” value (human GPR52) is reported as 79% and the “Activity Inhibition Rate (%)” value [1] is reported as 41%.
With `O=C(NCCO)c1ccnc(-c2cccc3cc(Cc4cccc(C(F)(F)F)c4)sc23)c1` [Working Example 198, N-(2-Hydroxyethyl)-2-[2-[3-(trifluoromethyl)benzyl]-1-benzothiophen-7-yl]pyridine-4-carboxamide] the “GPR52 agonist activity (%)” value (human GPR52) was 88% and the “Activity Inhibition Rate (%)” value [1] was 45%.
In the case of `Cn1c(Cc2cccc(C(F)(F)F)c2)nc2c(-c3cccc(C(=O)NCCC#N)c3)cccc21` [Working Example 88, N-(2-Cyanoethyl)-3-[1-methyl-2-[3-(trifluoromethyl)benzyl]-1H-benzimidazol-4-yl]benzamide], the “GPR52 agonist activity (%)” value (human GPR52) is reported as 59% and the “Activity Inhibition Rate (%)” value [1] is reported as 37%.
For `N#CCCNC(=O)c1cccc(-c2nccc3oc(Cc4cccc(C(F)(F)F)c4)cc23)c1` [Working Example 23, N-(2-Cyanoethyl)-3-[2-[3-(trifluoromethyl)benzyl]furo[3,2-c]pyridin-4-yl]benzamide], the “GPR52 agonist activity (%)” value (human GPR52) was 75%.
With `O=C(O)CNC(=O)c1cccc(-c2cccc3oc(Cc4cccc(C(F)(F)F)c4)cc23)c1` [Working Example 303, N-[(3-[2-[3-(Trifluoromethyl)benzyl]-1-benzofuran-4-yl]phenyl)carbonyl]glycine] the melting point was 89 to 94 °C.
With `NC(=O)CNC(=O)c1cccc(-c2cccc3cc(Cc4ccc(F)c(Cl)c4)sc23)c1` [Working Example 174, N-(2-Amino-2-oxoethyl)-3-[2-(3-chloro-4-fluorobenzyl)-1-benzothiophen-7-yl]benzamide] the “GPR52 agonist activity (%)” value (human GPR52) was 90%.
With `O=C1NCc2c1cccc2-c1cccc2cc(Cc3cccc(C(F)(F)F)c3)sc12` [Working Example 326, 4-[2-[3-(Trifluoromethyl)benzyl]-1-benzothiophen-7-yl]-2,3-dihydro-1H-isoindole-1-one] the “GPR52 agonist activity (%)” value (human GPR52) was 92%.
In the case of `NC(=O)c1cccc(-c2cccc3cc(COc4cccc(C(F)(F)F)c4)sc23)c1` [Working Example 184, 3-(2-[[3-(Trifluoromethyl)phenoxy]methyl]-1-benzothiophen-7-yl]benzamide], the “GPR52 agonist activity (%)” value (human GPR52) is reported as 82%.
In the case of `NC(=O)CNC(=O)c1cccc(-c2cccc3sc(Cc4cccc(C(F)(F)F)c4)cc23)c1` [Working Example 165, N-(2-Amino-2-oxoethyl)-3-[2-[3-(trifluoromethyl)benzyl]-1-benzothiophen-4-yl]benzamide], the “GPR52 agonist activity (%)” value (human GPR52) is reported as 108%.
In the case of `O=C(NCCO)c1cc(F)cc(-c2ccc(F)c3cc(Cc4cccc(C(F)(F)F)c4)sc23)c1` [Working Example 271, 3-Fluoro-5-[4-fluoro-2-[3-(trifluoromethyl)benzyl]-1-benzothiophen-7-yl]-N-(2-hydroxyethyl)benzamide], the “GPR52 agonist activity (%)” value (human GPR52) is reported as 94%.
